Read-outs that look alike come from different tables or passages of the source. *1 amine or outer side, *2 acyl side, *3 side chain or, on linkers, in order; H or OH if unused. Where a SMILES comes first, the peptide text is derived from it. Bridges are numbered along the chain shown (N, C = ends). [ ]: non-standard residue; d: D form. The star is where a group is joined. NMePhe(4-CH2NHiPr) = CN[C@@H](Cc1ccc(CNC(C)C)cc1)C(=O)O; Tyr(Nα-carbamoyl) = NC(=O)N[C@@H](Cc1ccc(O)cc1)C(=O)*; Phe(4-CH2NHiPr) = CC(C)NCc1ccc(C[C@H](N)C(=O)O)cc1; Tyr(3-I) = N[C@@H](Cc1ccc(O)c(I)c1)C(=O)O; X3 = NC(=O)N[C@@H](Cc1ccc(O)c(I)c1)C(=O)*; X1 = NC(=O)N[C@@H](CS[*:2])C(=O)[*:1]; d2Nal = N[C@H](Cc1ccc2ccccc2c1)C(=O)O; NMeS = CN[C@@H](CO)C(=O)O
What was measured:
Format in all cases: binding
[1] = molecular target: T1, human SSTR1 (Homo sapiens, UniProt P30872); assay: Displacement of 125I-[Leu8,D-Trp22,Tyr25]-SRIF-28 from cloned SSTR1 (receptor autoradiography)
T1 construct: expressed in transfected cells; host or cells: CHO-K1 cells and CCL39 cells
T1 sequence (P30872 whole entry): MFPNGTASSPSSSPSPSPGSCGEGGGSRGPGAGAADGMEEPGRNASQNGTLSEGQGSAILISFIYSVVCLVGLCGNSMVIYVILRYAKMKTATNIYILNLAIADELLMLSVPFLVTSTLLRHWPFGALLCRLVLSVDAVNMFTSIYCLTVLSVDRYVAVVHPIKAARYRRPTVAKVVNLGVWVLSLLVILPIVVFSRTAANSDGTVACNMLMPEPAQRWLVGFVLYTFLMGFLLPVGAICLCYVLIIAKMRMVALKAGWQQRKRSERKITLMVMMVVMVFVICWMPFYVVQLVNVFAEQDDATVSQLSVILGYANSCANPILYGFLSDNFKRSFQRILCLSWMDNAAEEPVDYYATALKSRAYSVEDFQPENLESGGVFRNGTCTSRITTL
Procedure: (§1) Generally, recombinant cells expressing the receptor are washed and homogenized to prepare a crude protein homogenate that is frozen, embedded and then cut in 10–20 μm thin sections, as known in this art. Candidate substances, such as potential SRIF agonists and antagonists, are incubated with the tissue sections, and the interaction between the candidate substance and the receptor polypeptide is monitored.
(§2) Receptor binding assays are performed on cloned SRIF receptors as generally set forth in Reubi, J. C. et al., J. Clin. Endocrinol. […] Med. 2000, 27, 273–282.
(§3) In vitro Bioassay: The various somatostatin analogs are tested in vitro for their ability to bind to isolated cloned receptors expressed on CHO-K1 cells and CCL39 cells. CHO-K1 cells are grown in Ham's F-12 medium, and CCL39 cells are grown in Dulbecco's modified Eagle's medium/Ham's F-12(1:1) mix, supplemented with 10% fetal bovine serum, 100 U/ml penicillin and 100 μg/ml streptomycin, in humidified air containing 5% CO2 at 37° C.
(§4) Cells are washed and prepared to produce homogenates as described in detail in Reubi, J. C. et al, Eur. J. Nucl. Med. 2000, 27, 273–282.
(§5) Receptor autoradiography is performed on 20 μm thick cryostat sections of the membrane pellets, mounted on microscope slides, and then stored at −20° C. […] Increasing concentrations of the unlabeled peptide are used ranging from 0.1–1000 nM. […] IC50 values are calculated after quantification of the data using a computer-assisted image processing system as known in this art.

[2] = molecular target: T2, human SSTR3 (Homo sapiens, UniProt P32745); assay: Displacement of 125I-[Leu8,D-Trp22,Tyr25]-SRIF-28 from cloned SSTR3 (receptor autoradiography); settings: read-out: IC50 (nM) mSSTR3
T2 construct: expressed in transfected cells; host or cells: CHO-K1 cells and CCL39 cells
T2 sequence (P32745 whole entry): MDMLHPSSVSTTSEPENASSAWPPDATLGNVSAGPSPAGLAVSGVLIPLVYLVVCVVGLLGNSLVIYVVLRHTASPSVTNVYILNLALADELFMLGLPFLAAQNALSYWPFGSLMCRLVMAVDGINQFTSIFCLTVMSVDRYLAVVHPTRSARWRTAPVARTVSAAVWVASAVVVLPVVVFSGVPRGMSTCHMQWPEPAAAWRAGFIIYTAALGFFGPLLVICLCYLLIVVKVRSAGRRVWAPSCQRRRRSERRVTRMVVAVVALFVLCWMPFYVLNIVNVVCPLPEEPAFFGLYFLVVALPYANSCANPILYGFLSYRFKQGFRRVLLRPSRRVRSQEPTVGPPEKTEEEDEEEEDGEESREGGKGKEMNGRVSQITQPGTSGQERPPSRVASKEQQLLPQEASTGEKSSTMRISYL
Procedure: as §1, §2, §3, §4, §5

[3] = molecular target: T3, human SSTR4 (Homo sapiens, UniProt P31391); assay: Displacement of 125I-[Leu8,D-Trp22,Tyr25]-SRIF-28 from cloned SSTR4 (receptor autoradiography); settings: read-out: IC50 (nM) mSSTR4
T3 construct: expressed in transfected cells; host or cells: CHO-K1 cells and CCL39 cells
T3 sequence (P31391 whole entry): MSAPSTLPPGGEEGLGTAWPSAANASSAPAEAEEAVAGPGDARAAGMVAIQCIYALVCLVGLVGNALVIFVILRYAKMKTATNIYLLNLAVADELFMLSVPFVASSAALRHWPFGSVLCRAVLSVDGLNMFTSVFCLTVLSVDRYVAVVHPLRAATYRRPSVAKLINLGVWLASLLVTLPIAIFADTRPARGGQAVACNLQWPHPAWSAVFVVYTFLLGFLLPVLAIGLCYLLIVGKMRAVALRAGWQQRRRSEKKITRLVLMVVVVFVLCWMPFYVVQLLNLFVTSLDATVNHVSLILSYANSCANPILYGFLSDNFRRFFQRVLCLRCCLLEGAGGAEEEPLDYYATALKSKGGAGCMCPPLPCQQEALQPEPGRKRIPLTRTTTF
Procedure: as §1, §2, §3, §4, §5

[4] = molecular target: T4, human SSTR5 (Homo sapiens, UniProt P35346); assay: Displacement of 125I-[Leu8,D-Trp22,Tyr25]-SRIF-28 from cloned SSTR5 (receptor autoradiography); settings: read-out: IC50 (nM) mSSTR5
T4 construct: expressed in transfected cells; host or cells: CHO-K1 cells and CCL39 cells
T4 sequence (P35346 whole entry): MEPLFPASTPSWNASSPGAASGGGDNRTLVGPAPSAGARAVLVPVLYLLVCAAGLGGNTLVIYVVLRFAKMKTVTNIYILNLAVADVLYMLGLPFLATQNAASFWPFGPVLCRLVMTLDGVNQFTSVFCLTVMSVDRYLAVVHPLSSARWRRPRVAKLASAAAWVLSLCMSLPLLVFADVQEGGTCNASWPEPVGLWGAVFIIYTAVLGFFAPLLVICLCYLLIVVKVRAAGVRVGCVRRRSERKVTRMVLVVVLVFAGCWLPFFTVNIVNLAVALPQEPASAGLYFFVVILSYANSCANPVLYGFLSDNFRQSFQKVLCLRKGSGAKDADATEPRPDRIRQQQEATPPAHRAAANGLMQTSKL
Procedure: as §1, §2, §3, §4
(§6) Receptor autoradiography is performed on 20 μm thick cryostat sections of the membrane pellets, mounted on microscope slides, and then stored at −20° C. […] […] […] IC50 values are calculated after quantification of the data using a computer-assisted image processing system as known in this art.

[5] = molecular target: T5, human SSTR2 (Homo sapiens, UniProt P30874); assay: Displacement of 125I-[Leu8,D-Trp22,Tyr25]-SRIF-28 from cloned SSTR2 (receptor autoradiography); settings: read-out: IC50 (nM) mSSTR2
T5 construct: expressed in transfected cells; host or cells: CHO-K1 cells and CCL39 cells
T5 sequence (P30874 whole entry): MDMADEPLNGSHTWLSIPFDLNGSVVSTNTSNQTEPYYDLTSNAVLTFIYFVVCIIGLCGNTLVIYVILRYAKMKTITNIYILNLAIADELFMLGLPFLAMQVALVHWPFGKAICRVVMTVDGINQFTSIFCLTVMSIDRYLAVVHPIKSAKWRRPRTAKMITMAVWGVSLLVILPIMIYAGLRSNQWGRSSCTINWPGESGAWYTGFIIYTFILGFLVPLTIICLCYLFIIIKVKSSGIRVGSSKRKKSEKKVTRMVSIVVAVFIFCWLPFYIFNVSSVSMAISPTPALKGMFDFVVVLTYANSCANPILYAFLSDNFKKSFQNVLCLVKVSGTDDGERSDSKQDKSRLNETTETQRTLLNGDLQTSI
Procedure: as §1, §2, §3, §4, §6

[6] = inhibition of radioligand binding of 125I-[Leu8,D-Trp22,Tyr24]SRIF-28, cloned receptor, table, read-out: IC50 (nM) mSSTR1
[7] = unit inferred, read-out: IC50 / binding affinity at SSTR1, unit inferred
[8] = inhibition of radioligand binding of 125I-[Leu8,D-Trp22,Tyr24]SRIF-28, cloned receptor, table

`CC(C)NCc1ccc(C[C@H]2C(=O)N[C@@H]([C@@H](C)O)C(=O)N[C@@H](Cc3ccc(O)c(I)c3)C(=O)N[C@@H]([C@@H](C)O)C(=O)N[C@@H](CO)C(=O)N[C@H](C(=O)O)CSSC[C@H](NC(N)=O)C(=O)N[C@@H](CCCCN)C(=O)N[C@@H](Cc3ccccc3)C(=O)N[C@@H](Cc3ccccc3)C(=O)N[C@H](Cc3c[nH]c4ccccc34)C(=O)N2C)cc1` [Peptide No. 12D, (cyclo)CbmCys-Lys-Phe-Phe-D-Trp-N^αMeIAmp-Thr-ITyr-Thr-Ser-Cys-OH] (KFF[dW][NMePhe(4-CH2NHiPr)]T[Tyr(3-I)]TSC-OH; linker N-10 via X1) gave an IC50 [1, 6] of 8.5 nM, an IC50 [2] greater than 1000 nM and an IC50 [3] of 700 nM. It also gave an IC50 [4] greater than 1000 nM and an IC50 [5] greater than 1000 nM.
For `CC(C)NCc1ccc(C[C@H]2C(=O)N[C@@H]([C@@H](C)O)C(=O)N[C@@H](Cc3ccccc3)C(=O)N[C@@H]([C@@H](C)O)C(=O)N[C@@H](CO)C(=O)N[C@H](C(=O)O)CSSC[C@H](N)C(=O)N[C@@H](CCCCN)C(=O)N[C@@H](Cc3ccccc3)C(=O)N[C@@H](Cc3ccccc3)C(=O)N[C@H](Cc3c[nH]c4ccccc34)C(=O)N2C)cc1` [Peptide No. 13, (cyclo)H-Cys-Lys-Phe-Phe-D-Trp-N^αMeIAmp-Thr-Phe-Thr-Ser-Cys-OH] (H-CKFF[dW][NMePhe(4-CH2NHiPr)]TFTSC-OH; disulfide 1-11), the IC50 ([1]; displacement of iodinated SRIF-28 radioligand, read-out: IC50 / binding affinity at human SSTR1) was roughly 8.7 nM, the IC50 [1, 6] was 8.7 nM and the IC50 [2] was 610 nM. For the same molecule, the IC50 [3] was 200 nM, the IC50 [4] was greater than 10000 nM and the IC50 [5] was greater than 10000 nM.
`CC(C)NCc1ccc(C[C@@H]2NC(=O)[C@@H](Cc3c[nH]c4ccccc34)NC(=O)[C@H](Cc3ccccc3)NC(=O)[C@H](Cc3ccccc3)NC(=O)[C@H](CCCCN)NC(=O)[C@@H](NC(=O)[C@H](Cc3ccc(O)cc3)NC(N)=O)CSSC[C@@H](C(=O)O)NC(=O)[C@H](CO)NC(=O)[C@H]([C@@H](C)O)NC(=O)[C@H](Cc3ccccc3)NC(=O)[C@H]([C@@H](C)O)NC2=O)cc1` [Peptide No. 14A, (cyclo)CbmTyr-Cys-Lys-Phe-Phe-D-Trp-IAmp-Thr-Phe-Thr-Ser-Cys-OH] ({Tyr(Nα-carbamoyl)}-CKFF[dW][Phe(4-CH2NHiPr)]TFTSC-OH; disulfide 1-11) gave an IC50 [1, 7] of 15 nM, an IC50 [2] of 500 nM and an IC50 [3, 8] greater than 1000 nM. It also gave an IC50 [4] greater than 1000 nM and an IC50 [5] greater than 10000 nM.
Work on `CC(C)NCc1ccc(C[C@@H]2NC(=O)[C@@H](Cc3c[nH]c4ccccc34)NC(=O)[C@H](Cc3ccccc3)NC(=O)[C@H](Cc3ccccc3)NC(=O)[C@H](CCCCN)NC(=O)[C@@H](NC(=O)[C@H](Cc3ccc(O)c(I)c3)NC(N)=O)CSSC[C@@H](C(=O)O)NC(=O)[C@H](CO)NC(=O)[C@H]([C@@H](C)O)NC(=O)[C@H](Cc3ccccc3)NC(=O)[C@H]([C@@H](C)O)NC2=O)cc1` [Peptide No. 14B] (X3-CKFF[dW][Phe(4-CH2NHiPr)]TFTSC-OH; disulfide 1-11) yielded an IC50 [1, 6] of 34.7 nM, an IC50 [2] of 290 nM and an IC50 [3] greater than 1000 nM. It also gave an IC50 [4] greater than 1000 nM and an IC50 [5] greater than 1000 nM.
With `CC(C)NCc1ccc(C[C@@H]2NC(=O)[C@@H](Cc3c[nH]c4ccccc34)NC(=O)[C@H](Cc3ccccc3)NC(=O)[C@H](Cc3ccccc3)NC(=O)[C@H](CCCCN)NC(=O)[C@H](NC(=O)[C@H](Cc3ccc(O)cc3)NC(N)=O)CSSC[C@@H](C(=O)O)NC(=O)[C@H](CO)NC(=O)[C@H]([C@@H](C)O)NC(=O)[C@H](Cc3ccccc3)NC(=O)[C@H]([C@@H](C)O)NC2=O)cc1` [Peptide No. 14C, (cyclo)CbmTyr-D-Cys-Lys-Phe-Phe-D-Trp-IAmp-Thr-Phe-Thr-Ser-Cys-OH] ({Tyr(Nα-carbamoyl)}-[dC]KFF[dW][Phe(4-CH2NHiPr)]TFTSC-OH; disulfide 1-11) the IC50 [1, 6] was 33 nM, the IC50 [2] was greater than 1000 nM and the IC50 [3, 8] was 487 nM. For the same molecule, the IC50 [4] was greater than 1000 nM and the IC50 [5] was greater than 10000 nM.
For `CC(C)NCc1ccc(C[C@H]2C(=O)N[C@@H]([C@@H](C)O)C(=O)N[C@@H](Cc3ccccc3)C(=O)N[C@@H]([C@@H](C)O)C(=O)N[C@@H](CO)C(=O)N[C@H](C(=O)O)CSSC[C@H](N)C(=O)N[C@@H](CCCCN)C(=O)N[C@@H](Cc3ccccc3)C(=O)N[C@@H](Cc3ccccc3)C(=O)N[C@H](Cc3ccc4ccccc4c3)C(=O)N2C)cc1` [Peptide No. 15, (cyclo)H-Cys-Lys-Phe-Phe-D-2Nal-N^αMeIAmp-Thr-Phe-Thr-Ser-Cys-OH] (H-CKFF[d2Nal][NMePhe(4-CH2NHiPr)]TFTSC-OH; disulfide 1-11), the IC50 [1, 6] was 43 nM, the IC50 [1, 7] was roughly 32.5 nM and the IC50 [2] was greater than 1000 nM. For the same molecule, the IC50 [3] was greater than 1000 nM, the IC50 [4] was greater than 10000 nM and the IC50 [5] was greater than 1000 nM.
With `CC(C)NCc1ccc(C[C@H]2C(=O)N[C@@H]([C@@H](C)O)C(=O)N[C@@H](Cc3ccc(O)cc3)C(=O)N[C@@H]([C@@H](C)O)C(=O)N[C@@H](CO)C(=O)N[C@H](C(=O)O)CSSC[C@H](NC(N)=O)C(=O)N[C@@H](CCCCN)C(=O)N[C@@H](Cc3ccccc3)C(=O)N[C@@H](Cc3ccccc3)C(=O)N[C@H](Cc3ccc4ccccc4c3)C(=O)N2C)cc1` [Peptide No. 16, (cyclo)CbmCys-Lys-Phe-Phe-D-2Nal-N^αMeIAmp-Thr-Tyr-Thr-Ser-Cys-OH] (KFF[d2Nal][NMePhe(4-CH2NHiPr)]TYTSC-OH; linker N-10 via X1) the IC50 [1, 6] was 32 nM, the IC50 [1, 7] was roughly 32 nM and the IC50 [2] was greater than 1000 nM. It also gave an IC50 [3] greater than 10000 nM, an IC50 [4] greater than 10000 nM and an IC50 [5] greater than 10000 nM.
For `CC(C)NCc1ccc(C[C@@H]2NC(=O)[C@@H](Cc3c[nH]c4ccccc34)NC(=O)[C@H](Cc3ccccc3)NC(=O)[C@H](Cc3ccccc3)NC(=O)[C@H](CCCCN)NC(=O)[C@@H](N)CSSC[C@@H](C(=O)O)NC(=O)[C@H](CO)N(C)C(=O)[C@H]([C@@H](C)O)NC(=O)[C@H](Cc3ccccc3)NC(=O)[C@H]([C@@H](C)O)NC2=O)cc1` [Peptide No. 22A, (cyclo)H-Cys-Lys-Phe-Phe-D-Trp-IAmp-Thr-Phe-Thr-N^αMeSer-Cys-OH] (H-CKFF[dW][Phe(4-CH2NHiPr)]TFT[NMeS]C-OH; disulfide 1-11), the IC50 [1, 6] was 25 nM, the IC50 [2] was 600 nM and the IC50 [3] was greater than 1000 nM. It also gave an IC50 [4] greater than 1000 nM and an IC50 [5] greater than 10000 nM.

Reference: US7019109B2, “SSTR1-selective analogs” (The Salk Institute for Bilogical Studies, priority 2001, dated 2006)
